Patent publication US20220323454A1, “PHENOTHIAZINES AND THEIR DERIVATIVES FOR USE AS A MEDICAMENT” (Guangzhou Virotech Pharmaceutical Co., Ltd., priority 2019, published 2022)

Tests used:
[1] = system: Jurkat-PD-1-NFAT-LUC cells; assay: IL-2 secretion by Jurkat-PD-1-NFAT-LUC cells co-cultured with Raji-PD-L1 cells (ELISA); assay type: cell-based, human; settings: 6 hours, FIG. 1D
Experimental: (§1) (1) Jurkat cells were used to construct a stable cell line expressing PD-1. The pCAGin-PD-1 plasmid was electroporated into Jurkat cells, which were then screened with 900 μg/mL G418 antibiotic and flow-sorted for single clones. Jurkat-PD-1 cells were then electroporated into a DNA fragment that controls the luciferase gene through the NFAT-binding site (referred to as NFAT-LUC). A single clone was then flow-sorted and named clone 5. Using this cell, the expression level of IL-2 can be measured by the activity of luciferase. Raji cells stably expressing PD-L1 were constructed, and the pCDNA-PD-L1 plasmid was electroporated into the Raji cells, followed by screening with 2 μg/mL puromycin, and then flow-sorted single clones and named clone 1.
(3) A 96-well plate was coated with 10 μg/mL CD3 antibody/10 μg/mL CD28 antibody overnight at 4° C. and excess antibody was washed off with PBS. Raji cells or Raji-PD-L1 cells were co-cultured with Jurkat-PD-1-NFAT-LUC cells at a ratio of 1:1, or to a mixture of Raji-PD-L1 cells and Jurkat-PD-1-NFAT-LUC cells at a ratio of 1:1 was added 1 μM MTC or 10 μg/mL PD1 antibody for co-culture; after 6 hours of co-culture, the secretion of IL-2 in the supernatant was measured by ELISA.

EG-7-PD-L1 cells = assay: CTL killing of EG-7-PD-L1 target cells (PI staining, flow cytometry); assay type: cell-based, mouse; settings: CTL : EG-7-PD-L1 5:1; 1 μM, 5 μM, 10 μM MTC, 4 hours; FIG. 4A
Experimental: (1) The preparation of CTL cells was described in Example 2.
(2) EG-7-PD-L1 cells were labeled with 5 nM CFSE. CTL cells and EG-7-PD-L1 were mixed at a ratio of 5:1, treated with 1 μM, 5 μM, and 10 μM MTC, respectively, for 4 hours, and then stained with 10 μg/mL PI. The apoptosis of target cells EG-7-PD-L1 was detected by flow cytometry, and then the killing ability of CTL cells to target cells was assessed.

EL4-OVA-mPDL1 cells = assay: EL4-OVA-mPDL1 subcutaneous transplanted tumor in Rag1−/− mice given CTL cells; assay type: in vivo, mouse
Experimental: (1) Lymphoma cells overexpressing chicken ovalbumin OVA and mouse PD-L1, namely EL4-OVA-mPDL1 cells, were resuspended in BD Matrigel, in which, for one side of one mouse, 2×10^6 cells were resuspended in 100 μl BD Matrigel.
(2) The mixture of cells and Matrigel was inoculated into the left and right flanks of Rag1−/− mice subcutaneously, each at a dosage of 100 μl.
(3) When the tumor was fixed about 5 days after inoculation, activated OT-1 T cells (i.e., 2×10^6 CTL cells/mouse) were injected through the tail vein, and the mice were divided into 3 groups, namely the CTL cell group, the CTL cell +10 mg/kg/2 days PD-1 antibody group, and the CTL cell +40 mg/kg/day MTC group.
(4) The length and width of the transplanted tumor of each group of mice were measured from the day of tail vein injection of CTL cells, and every other day, and the tumor volume was calculated as length×width^2/2 (FIG. 5A).

OT-1 CTL cells [2] = assay: Secretion of CTL effector molecules on co-culture with EG7-PD-L1 target cells (flow cytometry); assay type: cell-based, mouse; settings: CTL : EG7-PD-L1 1:1, GolgiPlug 6 hours; FIG. 3
Experimental: (§2) (1) Preparation of CTL cells: The spleens of OT1 mice were obtained, ground and added with red blood cell lysate, to prepare single-cell suspension. The culture medium was 1640+10% FBS+50 μM βME+10 nM IL-2. Cell density was adjusted to about 2-4 million/mL. The cells were added with 10 nM OVA257-264, and cultured in a cell incubator at 37° C., 5% CO2. From the day of CTL preparation, cells were stained with FITC-labeled PD-1 antibody every day, and the changes of PD-1 expression on the cell surfaces were detected by flow cytometry.
(3) CTL cells and target cells EG7 (EL4 lymphoma cells expressing chicken ovalbumin) were mixed and cultured at a concentration of 1:1. The cell mixture was treated with 1 μM protein transport inhibitor GolgiPlug™ for 6 hours, and then fixed by 4% paraformaldehyde. The cells were then treated with 0.1% saponin, and stained with antibodies against each effector molecule. The effect of MTC on the secretion of CTL effector molecules was detected by flow cytometry.

OT-1 CTL cells [3] = assay: CTL cell division under PD-L1 protein inhibition (CFSE, flow cytometry); assay type: cell-based; settings: 100 nM MTC; 10 nM SIINFEKL, 10 nM IL-2, 10 μg/mL mouse PD-L1 protein; 24, 48, 72 hours; FIG. 2B
Experimental: as §2
(2) The CTL cells were labeled with 5 nM CFSE, stimulated by 10 nM SIINFEKL and 10 nM IL-2, and added with 10 μg/mL mouse PD-L1 protein. The experimental group was also added with 100 nM MTC and stimulated for 24, 48, and 72 hours. The effects of PD-L1 protein and MTC on CTL cell division were observed by flow cytometry.

[4] = system: Jurkat-PD-1-NFAT-LUC cells; assay: NFAT-luciferase activity in Jurkat-PD-1-NFAT-LUC cells co-cultured with Raji-PD-L1 cells; assay type: cell-based, human; settings: 4.86 μM MTC or LMT added with Raji-PD-L1 cells, 6 h co-culture; FIG. 1E
Experimental: as §1
(4) A 96-well plate was coated with 10 μg/mL CD3 antibody/10 μg/mL CD28 antibody overnight at 4° C., and excess antibody then washed off with PBS. Raji cells or Raji-PD-L1 cells were co-cultured with Jurkat-PD-1-NFAT-LUC cells at a ratio of 1:1, or to a mixture of Raji-PD-L1 cells and Jurkat-PD-1-NFAT-LUC cells at a ratio of 1:1 was added 4.86 μM MTC or LMT. Luciferase substrate was added after 6h co-culture and the luciferase activity was measured by a microplate reader.

## CN(C)c1ccc2nc3ccc(N(C)C)cc3[s+]c2c1 [MTC, 3,7-bis(dimethylamino)-phenothiazine-5-ium chloride]
[1]; 1 μM MTC vs 10 μg/mL PD1 antibody
  function of Jurkat cells inhibited by PD-1, compared with the PD-1 antibody group: significantly improved
[1]; Raji-PD-L1 : Jurkat-PD-1-NFAT-LUC 1:1, CD3/CD28 antibody coated plate, 1 μM MTC or 10 μg/mL PD1 antibody
  secretion of IL-2 in the supernatant: sharply enhanced
EG-7-PD-L1 cells
  killing ability of CTL cells against EG-7-PD-L1: significantly restored
EL4-OVA-mPDL1 cells; CTL cells by tail vein, MTC 40 mg/kg/day intragastric, PD-1 antibody 10 mg/kg/2 days intraperitoneal, vs CTL cell-only group, FIGS. 5B, C, D
  tumor growth (tumor volume and tumor weight): strongly inhibited tumor growth
EL4-OVA-mPDL1 cells; MTC 40 mg/kg/day vs PD-1 antibody 10 mg/kg/2 days
  therapeutic effect of CTL+MTC compared with CTL+PD-1 antibody treatment group: better therapeutic effect
OT-1 CTL cells [2]
  secretion of Granzyme B in CTL cells: increased sharply
  secretion of IFNγ in CTL cells: increased sharply
  secretion of IL-2 in CTL cells: increased sharply
  secretion of perforin in CTL cells: increased sharply
OT-1 CTL cells [3]
  CTL cell division inhibited by PD-L1 protein: reversed the inhibition
[4]
  luciferase activity: increased dramatically
